“Also recorded” adds a separate entry of the source. Read-outs that look alike come from different tables or passages of the source.
Tests used:
ER- MDA-MB-231 cells = assay: MTT cell viability / proliferation assay, MDA-MB-231; assay type: cell-based
Description: (§1) IC50 and IC25 values for inhibitors is calculated from the linear regression line of the plot of percentage inhibition versus log inhibitor concentration. These IC50 values is used for combination or sequencing studies. The effect of combination or sequence of treatment is determined at IC25 of each agent.
(§2) For a cell proliferation assay, 10^4 cells were plated in a 96 well plate and treated with indicated drugs for 6 days. The medium was replaced after 3 days. On day 7, 500 μg/ml of MTT solution was added to each well and cells incubated for 3 hours. The tetrazolium dye trapped inside the mitochondria of the cells was dissolved in DMSO and the absorbance was measured at 560 nm.

aromatase (CYP19) = assay: Western immunoblotting for aromatase protein expression in MDA-MB-231 cells; assay type: cell-based; details: 24 hour treatment
Description: (§3) Expression of ER and Aromatase proteins was examined by Western blotting. β-actin was used as a loading control.

SKBr3 = assay: MTT cell proliferation assay, SKBr3; assay type: cell-based; details: Her-2 status ++++, read-out: IC50 values for inhibition of ER-cell proliferation, SKBr3
Description: as §1, §2

Hs 578T = assay: MTT cell proliferation assay, Hs 578T; assay type: cell-based; details: Her-2 status +, read-out: IC50 values for inhibition of ER-cell proliferation, Hs 578T
Description: as §1, with “MTT assay was performed to measure viability of breast cancer cells after treatment with various test compounds (Sabnis et al. 2005). IC50 and” for “IC50 and”
as §2, with “Exemplary ER negative cell lines (MDA-MB-231) were used. For” for “For”

ERα = assay: Western immunoblotting for ERα protein expression in MDA-MB-231 cells; assay type: cell-based; details: 10 nM
Description: Protein expression of other ER inducible genes such as c-Myc and PgR can also be examined.
as §3

MDA-MB-231 xenografts = MDA-MB-231 xenografts in female ovariectomized nude mice; assay type: in vivo
Description: The tumors of MDA-MB-231 cells were grown in female ovariectomized nude mice. Sub-confluent cells were collected into Citric Saline, centrifuged and resuspended in Matrigel (10 mg/mL) at ˜2.5×10^7 cells/mL. Each mouse received subcutaneous inoculations in two sites per flank with 100 μL of cell suspension. Mice were then injected subcutaneously daily with 0.3% HPC in 0.9% NaCl (vehicle) until the tumors reached a measurable size (˜150 mm^3). At this point the mice were grouped such that the starting tumor volumes were not statistically different across the groups. The mice were injected with indicated agents (5× weekly) for indicated time. The tumors were measured weekly with calipers and the tumor volumes were calculated using the formula (4/3)πr1^2r2(r1≦r2).

[1] = system: ERα, aromatase and androgen receptor; assay: Western blotting of xenograft tumors; assay type: in vivo, mice; details: MDA-MB-231 xenograft tumors
Description: (§4) Expression of ER and aromatase proteins was examined by Western blotting. β-actin was used as a loading control. The radiometric ^3H2O release assay for aromatase activity was performed as follows: the tumors were homogenized using ice-cold DPBS and the homogenate was used for the aromatase assay. ^3H2O release assay was performed using [1β^3H] androstenedione (Specific activity 23.5 Ci/mmole). The activity of the enzyme is corrected for protein concentration in the tumor homogenates.

aromatase [2] = assay: Radiometric 3H2O release assay for aromatase activity in MDA-MB-231 cells; assay type: cell-based; design: aromatase activity: dose or concentration left out as unconfirmed; details: for aromatase activity after pre-treatment: MDA-MB-231 cells
Description: The aromatase activity assay was described by Yue et al. (1997). The expression and activation of aromatase was seen after treatment with HDACi. […] This up-regulation of aromatase activity was dose dependent.
150,000 cells were plated in IMEM without PR with 5% steroid free serum, 1% penicillin-streptomycin and 750 μg/ml G418. Next day the cells were incubated with 0.5 μCi of [1β^3H] androstenedione (Specific activity 23.5 Ci/mmole) in 1 ml of media containing 1% charcoal stripped serum for 18 hours. The medium was then collected and treated with TCA (trichloroacetic acid) to precipitate proteins. The residual steroids in the medium were extracted and removed with chloroform and further treated with a 2.5% charcoal suspension. The ^3H2O in the supernatant was measured using a scintillation counter. In this assay ^3H2O is released during conversion of [1β^3H] Δ4A to estrone, catalyzed by the enzyme aromatase. For pre-treatment studies, cells were plated as described above and then next day pre-treated with indicated agent for 24 hours before incubating with [1β^3H] Δ4A for 18 hours. The activity of the enzyme is corrected for protein concentration in the cells plated and treated.

aromatase [3] = assay: 3H2O release assay for aromatase activity in tumor homogenates; assay type: in vivo, mice; details: MDA-MB-231 xenograft tumors
Description: as §4

[4] = Homo sapiens, MDA-MB-231, Her-2 status −, read-out: IC50 values for inhibition of ER-cell proliferation, MDA-MB-231

N#Cc1ccc(C(c2ccc(C#N)cc2)n2cncn2)cc1 [letrozole]
IC50 (ER- MDA-MB-231 cells; Homo sapiens, MDA-MB-231, MDA-MB-231 cells, combined with MS-275 (0.1 nM), read-out: IC50 of letrozole for cell growth inhibition): 0.0154 µM | IC50 (ER- MDA-MB-231 cells; Homo sapiens, MDA-MB-231, MDA-MB-231 cells, combined with SAHA, read-out: IC50 of letrozole for cell growth inhibition): 1.13 µM | cell growth inhibition in combination (ER- MDA-MB-231 cells; MDA-MB-231 cells, letrozole combined with MS-275 (0.1 nM)): synergistically inhibit cell growth in a dose dependent manner | cell growth inhibition in combination (ER- MDA-MB-231 cells; MDA-MB-231 cells, letrozole combined with SAHA): synergistically inhibit cell growth in a dose dependent manner | growth inhibitory effect (ER- MDA-MB-231 cells; MDA-MB-231 cells, single agent): refractory; also recorded: did not inhibit growth

N-(2-aminophenyl)-4-(N-(pyridin-3-ylmethoxycarbonyl)aminomethyl) benzamide [MS-275]
expression of aromatase up-regulated (aromatase (CYP19); 10 nM): 2.6 fold | IC50 (SKBr3): 6.82e-05 µM | IC50 (Hs 578T): 0.0281 µM | protein expression of ERα up-regulated (ERα): 8 fold | growth of MDA-MB-231 xenografts (MDA-MB-231 xenografts; 5x weekly dosing): inhibits growth of MDA-MB-231 xenografts | effectiveness by route of administration (MDA-MB-231 xenografts; oral versus other route): more effective when given orally | uterine weight (MDA-MB-231 xenografts; ovariectomized mice, bioassay for estrogenic/antiestrogenic effects): does not affect the uterine weight | expression of ERα, aromatase and androgen receptor in tumors [1]: upregulates | aromatase activity after pre-treatment (aromatase [2]): upregulated | aromatase activity (aromatase [2]; then 1β-3H-androstenedione 18 hours, basal 3.02): 15.193 pmoles/μg of protein/hour | intra-tumoral aromatase activity (aromatase [3]): upregulates intra-tumoral aromatase activity | growth inhibitory effect (ER- MDA-MB-231 cells; MDA-MB-231 cells, single agent): significantly inhibited | IC50 (ER- MDA-MB-231 cells; MDA-MB-231 cells, single agent, read-out: IC50, growth inhibition): 0.0817 µM

C=C1C[C@@H]2[C@H](CC[C@]3(C)C(=O)CC[C@@H]23)[C@@]2(C)C=CC(=O)C=C12 [exemestane]
growth inhibitory effect (ER- MDA-MB-231 cells; MDA-MB-231 cells, single agent): refractory

O=C(CCCCCCC(=O)Nc1ccccc1)NO [SAHA, N′-hydroxy-N-phenyl-octanediamide]
expression of aromatase up-regulated (aromatase (CYP19); 10 nM): 1.77 fold | IC50 (Hs 578T; Homo sapiens, Hs-578T): 0.0169 µM | protein expression of ERα up-regulated (ERα): 9.9 fold | aromatase activity after pre-treatment (aromatase [2]): upregulated

CCCC(=O)O [BA, butyric acid]
expression of aromatase up-regulated (aromatase (CYP19); 1 μM): 1.2 fold | IC50 (SKBr3; Homo sapiens, SK-BR-3): 17.2 µM | IC50 (Hs 578T; Homo sapiens, Hs-578T): 67900 µM | aromatase activity after pre-treatment (aromatase [2]): upregulated | IC50 (ER- MDA-MB-231 cells; [4]): 20300 µM | IC50 (ER- MDA-MB-231 cells; Homo sapiens, MDA-MB-231, MDA-MB-231 cells, single agent, read-out: IC50, inhibition of cell growth): 20300 µM | growth inhibitory effect (ER- MDA-MB-231 cells; MDA-MB-231 cells, single agent): inhibited

C[C@]12CC[C@@H]3c4ccc(O)cc4C[C@@H](CCCCCCCCC[S+]([O-])CCCC(F)(F)C(F)(F)F)[C@H]3[C@@H]1CC[C@@H]2O (stereo partly drawn) [fulvestrant]
growth inhibitory effect (ER- MDA-MB-231 cells; MDA-MB-231 cells, single agent): refractory

CC(C)(C#N)c1cc(Cn2cncn2)cc(C(C)(C)C#N)c1 [anastrozole]
growth inhibitory effect (ER- MDA-MB-231 cells; MDA-MB-231 cells, single agent): refractory

CC(=O)Nc1ccc(C(=O)Nc2ccccc2N)cc1 [CJ-994, 4-acetylamino-N-(2′-aminophenyl)-benzamide]
IC50 (SKBr3; Homo sapiens, SK-BR-3): 8.52 µM | IC50 (Hs 578T; Homo sapiens, Hs-578T): 0.122 µM | IC50 (ER- MDA-MB-231 cells; [4]): 97.8 µM

CC/C(=C(\c1ccccc1)c1ccc(OCCN(C)C)cc1)c1ccccc1 [tamoxifen]
growth inhibitory effect (ER- MDA-MB-231 cells; MDA-MB-231 cells, single agent): refractory

From patent US8110550B2, “HDAC inhibitors and hormone targeted drugs for the treatment of cancer” (University of Maryland, Baltimore, priority 2007, dated 2012)
